Measurements as given in ChEMBL document CHEMBL1157528, “Mixed tetraoxanes containing the acetone subunit as antimalarials” (Bioorg Med Chem, 2008).
The source made the active and inactive calls. The calls are words filed in the database; no cut-off is given here.

Tests used:
[1] = Cytotoxicity against human NCI60 cells; assay type: functional
A498 = assay: Antiproliferative activity against human A498 cells; assay type: functional
[2] = Metabolic stability in human liver microsomes assessed as half life at 10 uM; assay type: ADME, Microsome
[3] = Metabolic stability in mouse liver microsomes assessed as half life at 10 uM; assay type: ADME, Microsome
Plasmodium falciparum [4] = assay: microbe, parasite or virus in culture; settings: RCS
Description: Antimalarial activity against chloroquine-resistant, mefloquine-sensitive Plasmodium falciparum RCS

Plasmodium falciparum [5] = assay: microbe, parasite or virus in culture; settings: TM91C235
Description: Antimalarial activity against mefloquine, chloroquine and quinine-resistant Plasmodium falciparum TM91C235

Plasmodium falciparum [6] = assay: microbe, parasite or virus in culture; settings: D6
Description: Antimalarial activity against chloroquine and pyrimethamine-sensitive Plasmodium falciparum D6

Plasmodium falciparum [7] = assay: microbe, parasite or virus in culture; settings: W2
Description: Antimalarial activity against chloroquine and pyrimethamine-resistant Plasmodium falciparum W2

Plasmodium berghei [8] = assay: Antimalarial activity as parasite-free survivors at day 31 of Plasmodium berghei KBG173 infected CD1 mice (Mus musculus) at 320 mg/kg/day peroral dose; assay type: functional, organism-based
Plasmodium berghei [9] = assay: Antimalarial activity as parasite-free survivors at day 31 of Plasmodium berghei KBG173 infected CD1 mice (Mus musculus) at 20 mg/kg/day peroral dose; assay type: functional, organism-based
Plasmodium berghei [10] = assay: Antimalarial activity as survival time in Plasmodium berghei KBG173 infected CD1 mice (Mus musculus) at 320 mg/kg/day peroral dose; assay type: functional; settings: route oral
Plasmodium berghei [11] = assay: Antimalarial activity as survival time against Plasmodium berghei KBG173 infected CD1 mice (Mus musculus) at 80 mg/kg/day peroral dose 3 - 5 days post infection; assay type: functional; settings: route oral
Plasmodium berghei [12] = assay: Antimalarial activity as survival time in Plasmodium berghei KBG173 infected CD1 mice (Mus musculus) at 20 mg/kg/day peroral dose; assay type: functional; settings: route oral

Compound `C[C@H](CCC(N)=O)[C@H]1CC[C@H]2[C@@H]3[C@H](O)C[C@@H]4CC5(CC[C@]4(C)[C@H]3C[C@H](O)[C@]12C)OOC(C)(C)OO5` has a GI50 [1] of 980 nM, an LC50 [1] of 11200 nM and a TGI [1] of 3800 nM. It also gave a GI50 (A498) of 92 nM, a TGI (A498) of 710 nM and a CC50 (A498; read-out: LC50 (the source's name)) of 11500 nM. It also gave a half-life at 10 µM [2] greater than 1 h, a half-life at 10 µM [3] greater than 1 h and an IC50 (Plasmodium falciparum [4]) of 38.7 nM. It also gave an IC90 (Plasmodium falciparum [4]) of 168 nM, an IC50 (Plasmodium falciparum [5]) of 228 nM and an IC90 (Plasmodium falciparum [5]) of 498 nM. It also gave an IC50 (Plasmodium falciparum [6]) of 215 nM, an IC90 (Plasmodium falciparum [6]) of 347 nM and an IC50 (Plasmodium falciparum [7]) of 153 nM. The IC90 (Plasmodium falciparum [7]) was 234 nM.
For `CNC(=O)CC[C@@H](C)[C@H]1CC[C@H]2[C@@H]3[C@H](OC(C)=O)C[C@@H]4CC5(CC[C@]4(C)[C@H]3C[C@H](OC(C)=O)[C@]12C)OOC(C)(C)OO5`, the GI50 [1] was 4470 nM, the LC50 [1] was 47900 nM and the TGI [1] was 18200 nM. For the same compound, the half-life at 10 µM [2] was greater than 1 h, the half-life at 10 µM [3] was greater than 1 h and the IC50 (Plasmodium falciparum [4]) was 11.6 nM. For the same compound, the IC90 (Plasmodium falciparum [4]) was 22.3 nM, the IC50 (Plasmodium falciparum [5]) was 31.3 nM and the IC90 (Plasmodium falciparum [5]) was 74.8 nM. For the same compound, the IC50 (Plasmodium falciparum [6]) was 46.9 nM, the IC90 (Plasmodium falciparum [6]) was 78.3 nM and the IC50 (Plasmodium falciparum [7]) was 18.1 nM. It also gave an IC90 (Plasmodium falciparum [7]) of 20.7 nM.
Work on `CC(=O)O[C@H]1C[C@H]2[C@@H]([C@H](OC(C)=O)C[C@@H]3CC4(CC[C@@]32C)OOC(C)(C)OO4)[C@@H]2CC[C@H]([C@H](C)CCC(=O)O)[C@@]12C` yielded a GI50 [1] of 15500 nM, an LC50 [1] of 75900 nM and a TGI [1] of 37200 nM. For the same compound, the half-life at 10 µM [2] was greater than 1 h, the half-life at 10 µM [3] was greater than 1 h and the Activity (Plasmodium berghei [8]) was “inactive”. The Activity (Plasmodium berghei [9]) was “inactive”, the Survival (Plasmodium berghei [10]) was 17 days and the Survival (Plasmodium berghei [11]) was 15 days. For the same compound, the Survival (Plasmodium berghei [12]) was 10 days, the IC50 (Plasmodium falciparum [5]) was 60.4 nM and the IC90 (Plasmodium falciparum [5]) was 231 nM. The IC50 (Plasmodium falciparum [6]) was 46.5 nM, the IC90 (Plasmodium falciparum [6]) was 96.3 nM and the IC50 (Plasmodium falciparum [7]) was 36 nM. For the same compound, the IC90 (Plasmodium falciparum [7]) was 94.7 nM.
`COC(=O)CNC(=O)CC[C@@H](C)[C@H]1CC[C@H]2[C@@H]3[C@H](OC(C)=O)C[C@@H]4CC5(CC[C@]4(C)[C@H]3C[C@H](OC(C)=O)[C@]12C)OOC(C)(C)OO5` showed a GI50 [1] of 8510 nM, an LC50 [1] of 77600 nM and a TGI [1] of 33900 nM. It also gave a half-life at 10 µM [2] of 1.17 h, a half-life at 10 µM [3] of 0.533 h and an IC50 (Plasmodium falciparum [6]) of 14.3 nM. For the same compound, the IC50 (Plasmodium falciparum [7]) was 5.98 nM.
Work on `CCCNC(=O)CC[C@@H](C)[C@H]1CC[C@H]2[C@@H]3[C@H](OC(C)=O)C[C@@H]4CC5(CC[C@]4(C)[C@H]3C[C@H](OC(C)=O)[C@]12C)OOC(C)(C)OO5` yielded a half-life at 10 µM [2] of 0.4 h, a half-life at 10 µM [3] of 0.417 h and an IC50 (Plasmodium falciparum [6]) of 7.4 nM. The IC90 (Plasmodium falciparum [6]) was 16.2 nM, the IC50 (Plasmodium falciparum [7]) was 18.1 nM and the IC90 (Plasmodium falciparum [7]) was 29.2 nM.
`CC(=O)O[C@H]1C[C@H]2[C@@H]([C@H](OC(C)=O)C[C@@H]3CC4(CC[C@@]32C)OOC(C)(C)OO4)[C@@H]2CC[C@H]([C@H](C)CCC(N)=O)[C@@]12C` showed a GI50 [1] of 8710 nM, an LC50 [1] of 79400 nM and a TGI [1] of 34700 nM. For the same compound, the half-life at 10 µM [2] was greater than 1 h, the half-life at 10 µM [3] was greater than 1 h and the IC50 (Plasmodium falciparum [6]) was 12.2 nM. For the same compound, the IC50 (Plasmodium falciparum [7]) was 9.4 nM.
`CCN(CC)CCCC(C)Nc1ccnc2cc(Cl)ccc12` (configuration not stated) [CHLOROQUINE] gave an IC90 (Plasmodium falciparum [4]) of 397 nM and an IC90 (Plasmodium falciparum [6]) of 17.6 nM.
